Source: patent US9279107B2, “Simplified basic media for human pluripotent cell culture” (WISCONSIN ALUMNI RESEARCH FOUNDATION, priority 2010, dated 2016)

Columns and labels:
Assay type in all cases: cell-based, human
[1] = tested on: H1 cells; experiment: Extended passage of cells in simplified media; conditions: DF5, or nutritional factor added individually to DF5
[2] = tested on: H1 cells; experiment: NANOG mRNA expression; conditions: added to DF5S; NODAL 100 ng/ml or TGF-β 2 ng/ml; compared to DF5S
Excerpt: DF5S was used to expand H1 cells. Cells grown in DF5S were more prone to differentiate than cells grown in TeSR™. However, H1 cells could be grown for several weeks (more than 15 passages), during which the cells maintained human ES cell morphology and high levels of OCT4 expression (FIG. 1E, FIG. 1F). […] DF5S+NODAL also supported pluripotency of the two tested human iPS cell lines, as determined by high expression of the pluripotency marker OCT4. All cells (hES cells and iPS cells) grown in DF5S with either NODAL or TGF-β maintained a normal karyotype after long-term passage.

[3] = tested on: foreskin cells; experiment: Reprogramming of foreskin fibroblasts to iPS cells; conditions: foreskin fibroblasts
Protocol: Available reprogramming protocols include incubation of the cells in FBS in the first several days after viral transduction or electroporation, prior to switching the cells to UM100 (U.S. Pat. No. 7,439,064, incorporated herein as if set forth in its entirety) or CM. The simplified media described in previous Examples were tested for their ability to support reprogramming.
To determine if DF5S-based media can be used for viral-free iPS cell derivation, foreskin cells were reprogrammed using a viral-free episomal vector, as described in Yu et al., Science 324:797 (2009), incorporated herein by reference as if set forth in its entirety, at hypoxic conditions (O5C10).
Plasmid combinations #6 and #19 were used for the reprogramming. In order to enhance the plasmid entry into the nucleus, ENBA mRNA was electroporated along with plasmid DNA. Around one million cells were transferred onto two 6-well plates in DF5SFeC for 5 days. Medium was then switched to DF5SFe for another 18-25 days. Cells of some of the wells were passaged for a second time using a 1:6 ratio at different time points.

[4] = tested on: H1 cells; experiment: Oct4 expression by flow cytometry as indicator of pluripotency
Protocol: As described in Example 3, human pluripotent cells, such as H1, H9, and iPS cells, could be grown and passaged over 15 times in DF5S but were prone to differentiate, such that extra care is needed to sustain pluripotency in DF5S. Because pluripotency could be maintained more easily in TeSR™, growth factors present in TeSR™ were added individually to DF5SFe used to grow H1 cells that were previously cultured in DF5S without differentiating to identify factors supporting long-term pluripotency. Cells were passaged approximately one day after reaching confluency, facilitating cell differentiation, and Oct4 expression, assessed by flow cytometry, was used as indicator of pluripotency.
Human pluripotent cells grown in DF5SFe elongated and lined up along each other, resembling a “spindle” shape just prior to differentiation. […] Thus, recombinant proteins of the TGF-β pathway were tested for their ability to support long-term pluripotency.

[5] = tested on: iPS cells; experiment: Long-term pluripotency of lentiviral iPS cell lines; conditions: added to DF5SFe; TGF-β 2 ng/ml or NODAL 100 ng/ml
Excerpt: Human ES cell lines, such as H1 and H9 have a culture history that includes exposure to various complex culture components, such as FBS, feeder cells, and knockout serum replacer. Exposure to these components could conceivably create dependency on these components and, consequently, alter cellular response to simplified media. Culture history might play a lesser role for iPS cells, derived from reprogrammed somatic cells, as derivation conditions are less complex. Therefore, different factors were tested with two original lentiviral iPS cell lines (Yu, et al., Science 318:1917 (2007)) grown in DF5SFe. Cells were transferred from MEF plates directly into DF5SFe medium for one passage and then passaged into various growth factor conditions. […] Pluripotency surface markers SSEA4, SSEA3, Tra-1-60, and Tra-1-81 were also expressed. Cells with normal karyotypes were continuously maintained for more than 20 passages. The cells were capable of forming teratomas 5-7 weeks after injection into severe combined immunodeficient (SCID) mice.

[6] = tested on: patient cell lines OAT, PRPF8-2, GRC M1-29; experiment: Reprogramming of adult donor cell lines with episomal vectors; conditions: TGF-β added to the reprogramming media

Row | Compound | cell growth / proliferation through multiple passages [1] | NANOG mRNA level [2] | number of colonies during reprogramming [3] | number of true iPS cell colonies ([3]; TGF-β addition) | Oct4 expression ([4]; DF5SFe supplemented with TGF-β at TeSR concentration (0.6 ng/ml)) | Oct4 expression ([4]; DF5SFe supplemented with TGF-β at higher concentration (1 ng/ml)) | long-term pluripotency [5] | number of iPS clones [6] | total number of colonies [6]
1 | [Se] [selenium] | sufficient to support cell proliferation through multiple passages |  |  |  |  |  |  |  | 
2 | transforming growth factor beta [TGF-β] |  | significantly higher levels of NANOG mRNA | increased numbers of colonies | remained low | low levels of Oct4 expression | maintain high Oct4 expression | supported long-term pluripotency of iPS cells | not increased significantly | increased significantly
